Data taken from patent publication US6720332B2, “Oxindole derivatives” (SmithKline Beecham Corporation, priority 2000, dated 2004).

Legend:
[1] = biological target: T1, CDK4 (Cyclin D1 and cyclin-dependent kinase 4) (Homo sapiens, UniProt P11802); assay: CDK4 substrate phosphorylation assay (Rb protein); format: biochemical; settings: read-out: CDK4 inhibition
T1 construct: made in house
Method: (§1) The compounds of the present invention have valuable pharmacologic properties. Different compounds from this class are particularly effective at inhibiting CDK2 and/or CDK4 enzymes at concentrations, which range from 0.0001 to 1 μM and additionally show specificity relative to other kinases. Substrate phosphorylation assays were carried out as follows:
Cyclin D1 and cyclin-dependent kinase 4 were expressed utilizing a baculovirus expression system. The catalytic activity of CDK4 protein was assayed by measuring the phosphorylation of Rb protein. A truncated Rb protein (residues 773-928 of the native retinoblastoma protein, fused to glutathione S-transferase to facilitate purification) was used as the phosphoryl acceptor. The assay conditions were 100 mM HEPES (N-[2-hydroxyethyl]piperzine-N′-[2-ethanesulfonic acid]), pH 7.5, 0.5 μM GST-Rb protein, 1 μCi/mL [^33P]-ATP (1 nM-20 μM), 5-20 mM MgCl2, 2.5 mM EDTA, 1 mM dithiothieitol, 0.2 mg/mL bovine serum albumin, 2% (v/v) dimethyl sulfoxide (DMSO), CDK4 enzyme (5-50 nM) in a final volume of 50 μL. Reactions were incubated for time periods of 10-60 min at 30° C. and terminated by the addition of 50 μL quench (1 mM ATP/100 mM EDTA, pH 7.0). Detection of protein phosphorylation was accomplished by scintillation counting following collection of protein in 96 well plates coated with Glitathione or trapping of protein onto phosphocellulose filters. Counts detected by these methodologies minus the appropriate background were assumed to be proportional to the reaction initial rates. IC50 values were determined by measuring enzyme activity in the presence of different inhibitor concentrations (0.1 nM to 50 μM). IC50s were determined by a least squares fit to the equation CPM=Vmax*(1−([I]/(K+[I])))+nsb, or pIC50s were determined by a fit to the equation CPM=nsb+(Vmax−nsb)/(1+(x/10^x−pIC50)), where nsb are the background counts.

[2] = biological target: T2, CDK2 (Homo sapiens, UniProt P24941); assay: CDK2 substrate phosphorylation assay (biotinylated peptide); format: biochemical; settings: read-out: CDK2 inhibition
T2 construct: made in house
Method: as §1
Cyclin dependent protein kinase 2 assays utilized the peptide Biotin-aminohexyl-ARRPMSPKKKA-NH2 as phosphoryl group acceptor. CDK2 was expressed utilizing a baculovirus expression system and was partially purified to comprise 20-80% of total protein, with no detectable competing reactions present. Typically, assays were performed by incubating enzyme (0.2-10 nM), with and without inhibitor, peptide substrate (1-10 nM), [g-^32P]ATP (1-20 nM), and 10-20 mM Mg^2+ for periods of time generally within the range 10-120 minutes. Reactions were terminated with 0.2-2 volumes of either 20% acetic acid or 50-100 mM EDTA buffered to pH 7 (substrate consumption <20%). The buffer employed in enzyme assay was 100 mM HEPES pH 7.5 containing 0.1 mg/mL BSA and 5% DMSO. Inhibitors were diluted in 100% DMSO prior to addition into the assay. Detection of peptide phosphorylation was accomplished by scintillation counting following either collection of peptide onto phosphocellulose filters (for reactions stopped with acetic acid), collection of peptide in wells of 96 well plates coated with Streptavidin (Pierce) (reactions were stopped with EDTA), or addition of Avidin coated Scintillant impregnated beads (Scintillation Proximity Assays from Amersham, reactions were stopped with EDTA). […] Radioactivity was determined by liquid scintillation counting.

[3] = tested on: human tumor cells (U2OS, MDA-MB-231, SaOs-2, MDA-MB-468); assay: Anti-proliferation cell-based assay (BrdU incorporation); settings: 18 hr compound incubation, cell line not given, read-out: Anti-proliferative activity
Method: Anti-Proliferation Cell-Based Assay
The anti-proliferative activity of compounds was determined measuring the rate of DNA synthesis by bromodeoxyuridine (BrdU) incorporation into cellular DNA. The amount of BrdU in cellular DNA was detected using an anti-BrdU antibody in an ELISA format to allow for rapid throughput. Log-phase growing human tumor cells either containing functional Rb (U2OS, MDA-MB-231) or lacking functional Rb protein (SaOs-2, MDA-MB-468) were plated in medium into 96-well plates (1−6×10^3 cells/100 μL medium/well) and allowed to incubate overnight […]. Compounds (concentration range of 0.046-100 μM) were diluted in medium (final DMSO (v/v) 0.8%), added to wells containing cells, and incubated for 18 hr at 37° C. BrdU (100 μM) was added and incubated for 4 hr. Cells were rinsed with PBS and DNA was denatured by addition of fixation/denaturation solution. Anti-BrdU antibody conjugated to horseradish peroxidase in 1% BSA was added for 2 hr at room temperature. Cells were washed, the chemiluminescence reagent was added, and plates were read in luminometer.

T1 sequence (P11802 whole entry): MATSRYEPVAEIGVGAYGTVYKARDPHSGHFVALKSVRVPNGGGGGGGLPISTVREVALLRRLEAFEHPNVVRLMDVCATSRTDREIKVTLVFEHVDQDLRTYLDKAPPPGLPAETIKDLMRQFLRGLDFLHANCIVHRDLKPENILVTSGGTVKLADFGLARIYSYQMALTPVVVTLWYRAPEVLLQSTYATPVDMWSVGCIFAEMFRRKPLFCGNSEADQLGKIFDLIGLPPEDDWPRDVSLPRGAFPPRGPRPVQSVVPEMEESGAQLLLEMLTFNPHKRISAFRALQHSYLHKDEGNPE
T1 sequence (P24385 whole entry partner): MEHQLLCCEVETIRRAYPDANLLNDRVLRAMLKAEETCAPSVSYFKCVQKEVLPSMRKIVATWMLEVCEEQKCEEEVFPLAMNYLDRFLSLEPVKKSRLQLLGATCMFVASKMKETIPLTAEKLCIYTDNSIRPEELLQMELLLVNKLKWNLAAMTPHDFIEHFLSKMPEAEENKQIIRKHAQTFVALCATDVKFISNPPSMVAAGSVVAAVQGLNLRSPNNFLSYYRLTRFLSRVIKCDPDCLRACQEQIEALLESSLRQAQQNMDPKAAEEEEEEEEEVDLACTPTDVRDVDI

SMILES | IC50 [1] | IC50 [2] | IC50 [3]
O=C1Nc2ccc3ncccc3c2/C1=C/Nc1ccc(CN2CCOCC2)cc1 [Example 10, 1-[(Z)-(4-(4-morpholinyl)methylanilino)methylidene]-1,3-dihydro-2H-pyrrolo[3,2-f]quinoline-2-one] | < 100 nM | < 100 nM | < 1000 nM
CN(C)Cc1ccc(N/C=C2\C(=O)Nc3ccc4ncccc4c32)cc1 [Example 1, 1-[(Z)-(4-Dimethylaminomethylanilino)methylidene]-1,3-dihydro-2H-pyrrolo[3,2-f]quinoline-2-one] | < 100 nM | < 1000 nM | < 1000 nM
CC(C)CN(C)Cc1ccc(N/C=C2\C(=O)Nc3ccc4ncccc4c32)cc1 [Example 6, 1-[(Z)-(4-(N-Methyl)-2-methylpropylaminomethylanilino)methylidene]-1,3-dihydro-2H-pyrrolo[3,2-f]quinoline-2-one] | < 100 nM | < 1000 nM | < 100 nM
